From the METLIN SMRT retention time set (Domingo-Almenara et al. 2019)

assay: gradient 5% acetonitrile 3 min, to 50% in 2 min, to 85% in 15 min, held 3 min, 100 µL/min; details: column: Zorbax Extend-C18 2.1 x 50 mm; eluents: water / acetonitrile, 0.1% formic acid
How it was run: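 The mobile phases were water and acetonitrile, each with 0.1% formic acid, pumped at 100 μL/min through a Zorbax Extend-C18 column (2.1 × 50 mm, 1.8 μm). Pure standards were injected as mixtures of ~100 molecules and detected by a quadrupole time-of-flight mass spectrometer in positive and negative ionization mode. Retention time came from computationally picked adduct peaks, each inspected by hand.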

**Q.** For `Cc1cc(C)cc(Oc2cc(N3CCC(C(=O)NCCc4ccccc4)CC3)ncn2)c1`, which RP-LC retention time is on record?
**A.** 986 s

**Q.** Which RP-LC retention time does the source give for `O=C([C@@H]1OCC(=O)N(C2CC2)[C@H]1c1ccccc1)N1CCN(c2ccccc2)CC1` here?
**A.** 834 s

**Q.** For `CC(C(=O)NCCN(C)Cc1ccccc1)n1c(=O)c(C(F)(F)F)nc2ccccc21` (stereo unspecified), which RP-LC retention time is on record?
**A.** 735 s

**Q.** Which RP-LC retention time does the source give for `COc1ccccc1CC(=O)N1CCC(Nc2ncnc3c2CCC3)C1` (stereo unspecified) here?
**A.** 570 s

**Q.** For `CCOC(=O)c1noc2ncnc(NCc3ccc(C)cc3)c12`, which RP-LC retention time is on record?
**A.** 936 s

**Q.** For `CCn1ccc(C(=O)N2CC(Oc3cccc(-c4nc(C)no4)c3)C2)n1`, which RP-LC retention time is on record?
**A.** 808 s

**Q.** For `CCc1cccc(NS(=O)(=O)c2cn(C(C)C)c3ncccc23)c1`, which RP-LC retention time is on record?
**A.** 946 s

**Q.** Which RP-LC retention time does the source give for `O=C(Nc1ccc(OC(F)(F)F)cc1)C1CCN(S(=O)(=O)c2ccc3[nH]c(=O)ccc3c2)CC1` here?
**A.** 831 s

**Q.** With `Cc1ccc(CNS(=O)(=O)c2cc3n(c2)CCCN(C)C3=O)cc1` as the molecule, how does the RP-LC retention time read?
**A.** 711 s

**Q.** With `COc1cc(Cl)ccc1C(=O)N1CCN=C1N1CCN(c2ccccc2F)CC1` as the molecule, how does the RP-LC retention time read?
**A.** 749 s

**Q.** Which RP-LC retention time does the source give for `COc1ccc(NC(=O)Cn2c(=O)n(-c3ccc(F)cc3)c(=O)c3c2cc(C)n3C)cc1` here?
**A.** 812 s

**Q.** With `CCCCCn1c(=O)c2c(nc3n2CCCCN3c2ccc(OCC)cc2)n(C)c1=O` as the molecule, how does the RP-LC retention time read?
**A.** 1190 s

**Q.** Which RP-LC retention time does the source give for `CCOc1ccc(S(=O)(=O)N2CCC(C(=O)Nc3ccc(F)c(Cl)c3)CC2)cc1` here?
**A.** 1030 s

**Q.** For `O=C(COc1ccccc1)N1CCc2[nH]nc(-c3ccccc3)c2C1`, which RP-LC retention time is on record?
**A.** 788 s

**Q.** Which RP-LC retention time does the source give for `COc1ccc(S(=O)(=O)N2CCN(c3cc(C)c4ccccc4n3)CC2)cc1` here?
**A.** 701 s

**Q.** For `O=C(Nc1nc2c(s1)CCCC2C(=O)NCc1ccco1)c1ccc2c(c1)OCO2` (stereo unspecified), which RP-LC retention time is on record?
**A.** 789 s

**Q.** For `O=C(NCCCO)C1CCCN(c2ccc(Sc3ccc(Br)cc3)nn2)C1` (stereo unspecified), which RP-LC retention time is on record?
**A.** 704 s

**Q.** With `O=C(Nc1ccc2c(c1)OCCO2)C1CCCN(S(=O)(=O)Cc2ccc(Cl)cc2)C1` (stereo unspecified) as the molecule, how does the RP-LC retention time read?
**A.** 968 s

**Q.** Which RP-LC retention time does the source give for `O=C(Cn1cccc(-c2nc(-c3ccc(F)cc3)no2)c1=O)Nc1ccccc1Br` here?
**A.** 912 s

**Q.** For `COCCc1noc([C@@H]2CN(Cc3cccc(Cl)c3)C[C@H]2CO)n1`, which RP-LC retention time is on record?
**A.** 609 s

**Q.** For `CCNS(=O)(=O)c1c(C)[nH]c(=O)[nH]c1=O`, which RP-LC retention time is on record?
**A.** 550 s

**Q.** With `CCC(=O)Nc1ccc(N2CCN(CC(=O)N(C)C)CC2)cc1C(=O)O` as the molecule, how does the RP-LC retention time read?
**A.** 573 s

**Q.** Which RP-LC retention time does the source give for `CC(C)CCNC(=O)C1CCCN(S(=O)(=O)c2ccc3nc(-c4ccccc4)[nH]c3c2)C1` (stereo unspecified) here?
**A.** 841 s

**Q.** Which RP-LC retention time does the source give for `O=C1NC2(CCN(C(=O)c3c(F)cccc3F)CC2)N=C1c1cccc(F)c1` here?
**A.** 815 s

**Q.** For `Cc1cnc(C(=O)N[C@@H]2CCC[C@@H]2C(=O)NCc2ccc3c(c2)OCO3)cn1`, which RP-LC retention time is on record?
**A.** 662 s

**Q.** For `O=C(c1cnn(-c2cccc(F)c2)c1-n1cccc1)N1CCN(c2ccccn2)CC1`, which RP-LC retention time is on record?
**A.** 664 s

**Q.** With `NC(=O)c1ccc2c(c1)CCCN2S(=O)(=O)c1ccccc1` as the molecule, how does the RP-LC retention time read?
**A.** 726 s

**Q.** For `COc1ccc(S(=O)(=O)NCc2ccc3c(c2)CCN3C(C)=O)cc1Cl`, which RP-LC retention time is on record?
**A.** 779 s

**Q.** Which RP-LC retention time does the source give for `O=C(NCc1ccc(F)cc1)C1CCCN(S(=O)(=O)c2c[nH]c(C(=O)N3CCCC3)c2)C1` (stereo unspecified) here?
**A.** 747 s

**Q.** Which RP-LC retention time does the source give for `COc1ccc(-n2ncc3c(=O)n(Cc4nc(-c5ccc(C(C)(C)C)cc5)no4)cnc32)cc1` here?
**A.** 1270 s

**Q.** With `CCC(C)NS(=O)(=O)c1cc(-c2nnc(-c3ccccc3)o2)ccc1F` (stereo unspecified) as the molecule, how does the RP-LC retention time read?
**A.** 966 s

**Q.** With `CC1(C)CC(=O)c2cn(-c3ccccc3)c(=O)c(C(=O)N3CCOCC3)c2C1` as the molecule, how does the RP-LC retention time read?
**A.** 694 s

**Q.** Which RP-LC retention time does the source give for `CCn1ncc(CN(C)C(=O)C2CN(C(=O)c3ccccc3)CC23CCCCC3)c1C` (stereo unspecified) here?
**A.** 774 s

**Q.** Which RP-LC retention time does the source give for `O=C(OCc1ccccc1)c1nc2ccccc2nc1N1CCN(c2ccccn2)CC1` here?
**A.** 798 s

**Q.** With `CCOc1ccc(CCNC(=O)c2cc3sccc3n2CC)cc1OCC` as the molecule, how does the RP-LC retention time read?
**A.** 1050 s

**Q.** Which RP-LC retention time does the source give for `O=C1c2cccc3cccc(c23)C(=O)N1c1cccnc1` here?
**A.** 631 s

**Q.** Which RP-LC retention time does the source give for `O=C(Nc1ccc2c(c1)Cc1ccccc1-2)c1csc(Nc2ncccn2)n1` here?
**A.** 972 s

**Q.** For `c1ccc(CCc2nc(-c3ccc4c(c3)nnn4CCN3CCOCC3)no2)cc1`, which RP-LC retention time is on record?
**A.** 687 s

**Q.** Which RP-LC retention time does the source give for `Cc1cccc(OCC(=O)N2CCN(c3cc(C)n4c(C)nnc4n3)CC2)c1` here?
**A.** 614 s

**Q.** Which RP-LC retention time does the source give for `Cc1ccc(C)c(NC(=O)Cn2c(C)cc(-c3nnc(C4CC4)o3)c2C)c1` here?
**A.** 851 s

**Q.** With `O=C(CCc1c[nH]c2ccccc12)N1CCC(c2nc3ccccc3[nH]2)CC1` as the molecule, how does the RP-LC retention time read?
**A.** 594 s

**Q.** For `O=C(Nc1nc(-c2nc3ccccc3s2)cs1)c1ccc([N+](=O)[O-])s1`, which RP-LC retention time is on record?
**A.** 1020 s

**Q.** Which RP-LC retention time does the source give for `O=C(Nc1cnc(-c2cccc(Cl)c2)nc1)C1CCCC1` here?
**A.** 1100 s

**Q.** For `CSc1ccccc1NC(=O)Cc1cc(-c2ccc(F)cc2)on1`, which RP-LC retention time is on record?
**A.** 919 s

**Q.** Which RP-LC retention time does the source give for `O=S(=O)(c1ccc(-c2nnc(C3CCC3)o2)o1)N1CCCC1` here?
**A.** 846 s

**Q.** Which RP-LC retention time does the source give for `Cc1cccc(S(=O)(=O)N(C)CC2CCOC2)c1` (stereo unspecified) here?
**A.** 811 s

**Q.** Which RP-LC retention time does the source give for `Cc1cc2[nH]c(C(=O)Nc3cc(Cl)ccc3F)c(CN3CCOCC3)c2s1` here?
**A.** 892 s

**Q.** For `COCCN(CCOC)C(=O)C12CCC(C)(C(=O)C1)C2(C)C` (stereo unspecified), which RP-LC retention time is on record?
**A.** 706 s

**Q.** For `Cc1cc(N2CCN(C(=O)c3ccc(Br)cc3)CC2)nc2nnc(C)n12`, which RP-LC retention time is on record?
**A.** 563 s

**Q.** With `Cc1cccc2c(=O)n(C3CCN(S(=O)(=O)c4ccc(C(C)C)cc4)CC3)cnc12` as the molecule, how does the RP-LC retention time read?
**A.** 1120 s

**Q.** For `CC(=O)NCc1nc(-c2ccc(Oc3ccc(NC(C)=O)cc3)cc2)no1`, which RP-LC retention time is on record?
**A.** 662 s

**Q.** With `Cc1ccc(N2CCN(C(=O)CN3CCN(Cc4ccc(F)cc4)C3=O)CC2)cc1` as the molecule, how does the RP-LC retention time read?
**A.** 837 s

**Q.** Which RP-LC retention time does the source give for `CC(NC(=O)C1CCN(c2cnc3nccnc3c2)CC1)c1ccccc1` (stereo unspecified) here?
**A.** 705 s

**Q.** With `COc1ccc(OC)c(S(=O)(=O)Nc2ccc3c(c2)CCC(=O)N3C)c1` as the molecule, how does the RP-LC retention time read?
**A.** 675 s

**Q.** With `CN(C)CCNCc1ccc(-c2ccc(Cl)cc2Cl)o1` as the molecule, how does the RP-LC retention time read?
**A.** 609 s

**Q.** For `O=C(Cn1ncc2c(c1=O)N(C1CC1)C(=O)CS2)NCCC1=CCCCC1`, which RP-LC retention time is on record?
**A.** 754 s

**Q.** With `COc1ccc2c(c1)C1(CCN(S(=O)(=O)c3ccc(F)cc3)C1)C(=O)N2` (stereo unspecified) as the molecule, how does the RP-LC retention time read?
**A.** 820 s

**Q.** With `CC(CNC(=O)c1nc(Cn2c(=O)oc3ccc(Cl)cc32)no1)c1ccccc1` (stereo unspecified) as the molecule, how does the RP-LC retention time read?
**A.** 796 s

**Q.** For `CCN1CCN(c2ccc(NC(=O)c3cccc(Cl)c3)cn2)C1=O`, which RP-LC retention time is on record?
**A.** 802 s

**Q.** For `Cc1nc(-c2ccccc2Cl)sc1C(=O)N1CCN(c2ccccn2)CC1`, which RP-LC retention time is on record?
**A.** 661 s

**Q.** Which RP-LC retention time does the source give for `O=C(NCc1ccc(Br)cc1)C1CCN(c2ncnc3c2oc2ccccc23)CC1` here?
**A.** 982 s

**Q.** With `CCn1cc(S(=O)(=O)N2CCCN(S(=O)(=O)c3ccccc3)CCC(=O)NCC2)cn1` as the molecule, how does the RP-LC retention time read?
**A.** 702 s

**Q.** With `CCCn1cnc2ccc(-c3noc(-c4cccc(F)c4)n3)cc21` as the molecule, how does the RP-LC retention time read?
**A.** 873 s

**Q.** Which RP-LC retention time does the source give for `COc1ccc(CC(=O)N2C[C@@H]3C[C@H](NC(=O)c4ccccc4)[C@H]2C3)cc1Cl` here?
**A.** 794 s

**Q.** Which RP-LC retention time does the source give for `Cc1sc(-c2cc(C(F)(F)F)on2)cc1S(=O)(=O)NCC(C)c1ccccc1` (stereo unspecified) here?
**A.** 1230 s

**Q.** Which RP-LC retention time does the source give for `COc1cccc(CN2CC=C(C(=O)N3CCN(c4ccccc4)CC3)CC2)c1` here?
**A.** 664 s
